Data from US20060229347A1, “Treatment of eczemas” (Astion Development A/S, priority 2005, published 2006).
Structures can show the parent of a compound that is named as a salt. Each block holds one compound with its values, some of them ahead of it.

Columns and labels:
[1] = test system: oxazolone induced ear inflammation; assay: Oxazolone induced Mouse Ear Oedema Assay; format: in vivo, mice; conditions: for % inhibition of ear swelling: 24 hours; for inhibition of the formation of ear oedema: Example 7, 500 μg/ear dissolved in 96% ethanol
Experimental: Screening for Anti-inflammatory Effect in the Oxazolone induced Mouse Ear Oedema Assay. […] This screening method is commonly employed for screening and evaluation of anti-inflammatory drugs, in particular with respect to the inflammation seen in contact dermatitis. Betamethasone-17 valerate was used as the positive control. […] Betamethason was administered topically in quantities of 20 μg/ear. Betamethason was applied in the commercial form Celeston valerate® 0.1%. All groups were immunised with 20 μl oxazolone, 1.6% in ethanol 96% (w/v) on the left and the right ear. The ear thickness of all mice on both the left and right side was measured with an electronic measuring gauge. All groups were challenged with 20 μl oxazolone (1.6% in ethanol 96% (w/v)) on the left ear and the right ear. Vehicle (acetone) or test article solutions were administered 20 minutes before and 20 minutes after oxazolone challenge. 24 hours after oxazolone challenge the ear thickness of all mice was measured with an electronic measuring gauge. Mean thickness of the ears and standard deviations were calculated. Ear swelling was calculated as the difference between the ear thickness day 7 and day 8. […] Differences in ear swelling between the vehicle treated group and the other groups were tested for significance employing a non-parametric statistical method of analysis, the Mann-Whitney U test. The required level of significance was p<0.05. […] Both test articles were applied in a dose of 500 μg/ear and dissolved in 96% ethanol. Betamethason, as the positive control was administered topically in quantities of 20 μg/ear.

[2] = target: T1, Protein Tyrosine Kinase, ZA70 (ZAP-70) (Homo sapiens, UniProt P43403); assay: Protein Tyrosine Kinase ZA70 (ZAP-70) enzyme inhibition assay (MDS Pharma Service No. 155987); format: biochemical; conditions: in comparison to Oxaprozin
T1 construct: purchased MDS Pharma Service (contract assay) 155987
T1 sequence (P43403 1-619): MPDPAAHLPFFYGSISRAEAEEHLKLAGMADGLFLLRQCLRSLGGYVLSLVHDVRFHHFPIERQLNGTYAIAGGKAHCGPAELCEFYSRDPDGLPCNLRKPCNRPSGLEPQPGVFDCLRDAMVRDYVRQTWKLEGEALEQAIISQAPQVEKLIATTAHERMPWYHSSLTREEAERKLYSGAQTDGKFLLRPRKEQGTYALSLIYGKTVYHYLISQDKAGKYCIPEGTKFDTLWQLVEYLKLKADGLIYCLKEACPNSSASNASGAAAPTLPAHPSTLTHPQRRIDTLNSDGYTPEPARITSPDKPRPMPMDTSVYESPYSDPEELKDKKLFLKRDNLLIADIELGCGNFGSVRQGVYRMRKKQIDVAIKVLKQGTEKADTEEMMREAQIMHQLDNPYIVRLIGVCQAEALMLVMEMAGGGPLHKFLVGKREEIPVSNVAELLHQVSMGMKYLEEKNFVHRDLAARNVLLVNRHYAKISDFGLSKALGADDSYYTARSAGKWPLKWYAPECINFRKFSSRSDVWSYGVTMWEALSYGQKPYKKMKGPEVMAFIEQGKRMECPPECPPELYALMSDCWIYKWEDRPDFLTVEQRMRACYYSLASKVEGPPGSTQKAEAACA
Source text: The term “an inhibitor of Protein tyrosine kinase ZAP-70” refers to any agent that inhibits the catalytic activity of the Protein tyrosine kinase ZAP-70 in vitro as may be determined using a method described in Huckle W R, Dy R C, Earp H S. Calcium-dependent increase in tyrosine kinase activity stimulated by angiotensin II. Proc Natl Acad Sci USA 1992 Sep. 15; 89(18):8837-41 and in Isakov N, Wange R L, Watts J D, Aebersold R, Samelson L E. Purification and characterization of human ZAP-70 protein-tyrosine kinase from a baculovirus expression system. J Biol Chem 1996 Jun. 28; 271(26):15753-61. The inhibitory activity of Protein Tyrosine Kinase ZAP may be determined at MDS Pharma Service using test method number 155987.
(§1) The enzyme assays were conducted by MSD Pharma Services.

Phosphodiesterase PDE IV = Phosphodiesterase PDE IV enzyme inhibition assay (MDS Pharma Service No. 154000); format: biochemical; conditions: in comparison to Oxaprozin
Experimental: Trends Pharmacol Sci 1991 January; 12(1):19-27 and in Cortijo J, Bou J, Beleta J, Cardelus I, Llenas J, Morcillo E et al. Investigation into the role of phosphodiesterase IV in bronchorelaxation, including studies with human bronchus. Br J Pharmacol 1993 February; 108(2):562-8. The inhibitory activity of Phosphodiesterase PDE IV may be determined at MDS Pharma Service using test method number 154000.
as §1

[3] = target: T2, Protein Tyrosine Kinase, SYK (Homo sapiens, UniProt P43405); assay: Protein Tyrosine Kinase SYK enzyme inhibition assay (MDS Pharma Service No. 155761); format: biochemical; conditions: in comparison to Oxaprozin
T2 construct: purchased MDS Pharma Service (contract assay) 155761
Source text: The term “an inhibitor of Protein tyrosine kinase Syk” refers to any agent that inhibits the catalytic activity of Protein tyrosine kinase Syk in vitro. Such in vitro assays are described in Shichijo M, Yamamoto N, Tsujishita H, Kimata M, Nagai H, Kokubo T. Inhibition of syk activity and degranulation of human mast cells by flavonoids. Biol Pharm Bull 2003 December; 26(12):1685-90 and in Zhang J, Berenstein E, Siraganian R P. Phosphorylation of Tyr342 in the linker region of Syk is critical for Fc epsilon RI signalling in mast cells. Mol Cell Biol 2002 December; 22(23):8144-54. The inhibitory activity of Protein Tyrosine Kinase SYK may be determined at MDS Pharma Service using test method number 155761.
as §1

skin = conditions: guinea pig, in vivo
Experimental: 17th, 1992, and the test method B.6 of the 96/54 E.E.C Directive.
Albino guinea pigs of Dunkin-Hartley strain were exposed to the test item after an acclimatisation period of at least five days.
The Maximum Non Necrotizing Concentration (M.N.N.C.) was determined by injecting by intradermal route the following concentrations: 2.5%, 1.25%, 0.625%, 0.3125%, 0.1562% and 0.078% diluted in physiological saline solution.
Pre-Maximum Non Irritant Concentration (pre-M.N.I.C.) was determined by application of the test item under an occlusive dressing during 24 hours, at the following concentrations: 2.5%, 1.25%, 0.625%, 0.3125% diluted in physiological saline solution.
Maximum Non Irritant Concentration (M.N.I.C.) was determined by initially establishing an induction phase by intradermal injection with a physiological saline solution and by topical application of distilled water followed by a 18-day rest phase. In the challenge phase where the test item is under occlusive dressing for 24 hours, the test item was applied to the skin of the Albino guinea pigs at the following concentrations: 2.5%, 1.25%, 0.625%, 0.3125% diluted in physiological saline solution.

undamaged skin = assay: Acute dermal irritation; format: in vivo; conditions: monoethanolamine salt 5% by weight in water, 0.5 mL patch; reading time 1 hour
Experimental: The sample was applied at a dose of 0.5 mL, on an undamaged skin area of the right flank of each animal. The patch was secured in position with a strip of surgical adhesive tape.
On the left flank an untreated area served as the control.
The skin reactions were evaluated after 1 hour and then after 24, 48 and 72 hours following removal of the patch according to the following grading scale:
Erythema (0: No erythema, 1: Slight(barelyperceptible)erythema, 2: Definite erythema, 3: Moderate to severe erythema, 4: Severe erythema (purple) with formation of eschars (deep lesions) preventing erythema from being grading).
Oedema (0: No oedema, 1: Very slight (barely perceptible) oedema, 2: Slight oedema (contour clearly defined), 3: Moderate oedema (thickness), 4: Severe oedema (thickness greater than 1 mm, surface larger than zone of application)

Structure (SMILES): CCCCC(=O)O[C@]1(C(=O)CO)[C@@H](C)C[C@H]2[C@@H]3CCC4=CC(=O)C=C[C@]4(C)[C@@]3(F)[C@@H](O)C[C@@]21C [Betamethasone 17-valerate]
% inhibition of ear swelling ([1]; 20 μg/ear topical, Celeston valerate 0.1%): 66%

inhibitory effect on the PDE-IV enzyme (Phosphodiesterase PDE IV): exhibits inhibitory effect
Structure (SMILES): CCCCOc1ccc(CC(=O)NO)cc1 [Bufexamac]
inhibitory effect on Protein Tyrosine Kinase ZAP-70 [2]: only exhibits inhibitory effect on the PDE-IV enzyme
inhibitory effect on Protein Tyrosine Kinase SYK [3]: only exhibits inhibitory effect on the PDE-IV enzyme
inhibition of the formation of ear oedema [1]: did not inhibit the formation of ear oedema at all

Structure (SMILES): O=C(O)CCc1nc(-c2ccccc2)c(-c2ccccc2)o1 [Oxaprozin monoethanolamine salt]
skin sensitization (cutaneous reactions attributable to allergy) (skin): not causing sensitization reactions
% inhibition of ear swelling ([1]; 250 μg/ear topical in acetone, 20 min before and after oxazolone challenge): 53%
% inhibition of ear swelling ([1]; 500 μg/ear topical in acetone, 20 min before and after oxazolone challenge): 77%
% inhibition of ear swelling ([1]; 1000 μg/ear topical in acetone, 20 min before and after oxazolone challenge): 95%
inhibition of ear swelling (conclusion) ([1]; 250-1000 μg/ear): dose dependent and highly significant inhibition of ear swelling
inhibition of ear swelling compared with Betamethasone 17-valerate ([1]; highest dose (1000 μg/ear) vs Betamethasone 17-valerate 20 μg/ear): significantly stronger

Structure (SMILES): O=C(O)CCc1nc(-c2ccccc2)c(-c2ccccc2)o1 [Oxaprozin, 4,5-diphenyl-2-oxazole-propionic acid]
cutaneous reactions (erythema) (undamaged skin): slight erythema
inhibition of the formation of ear oedema [1]: statistically significant inhibition of the formation of ear oedema
